Experimental findings from patent US20240398781A1, “SPIROCYCLIC CYCLIC MODULATORS OF CHOLESTEROL BIOSYNTHESIS AND THEIR USE FOR PROMOTING REMYELINATION” (GENENTECH, INC., priority 2021, published 2024) are described below.

For this test, the target named is human emopamil binding protein and human 7-dehydrocholesterol reductase co-expressing cells (hEBP-DHCR7 membrane) (Homo sapiens (Human), UniProt Q15125). The experiment in a line: Radioligand filter binding assay on hEBP-DHCR7 membrane. The note with it: [3H]-(S)-6-(2-Methyl-3-(6-(trifluoromethyl)pyridin-3-yl)propyl)-2-thia-6-azaspiro[3.4]octane 2,2-dioxide radioligand, HEK293 membrane co-expressing hEBP and hDHCR7. The method, boiled down: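 HEK293 cells transiently co-expressing human EBP and DHCR7 supplied whole-cell membranes (10 μg/well), incubated 3 h at 22 °C with [3H]-labelled spiro-octane dioxide ligand (added at 25 nM) and compound (0.06-5000 nM final, 8 doses, n=2). Bound ligand was collected on PEI-treated GF/B filters and counted by scintillation. IC50 was Hill-fitted from % inhibition and reported as Ki.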
Sequence of human emopamil binding protein and human 7-dehydrocholesterol reductase co-expressing cells (hEBP-DHCR7 membrane) (Q15125 whole entry): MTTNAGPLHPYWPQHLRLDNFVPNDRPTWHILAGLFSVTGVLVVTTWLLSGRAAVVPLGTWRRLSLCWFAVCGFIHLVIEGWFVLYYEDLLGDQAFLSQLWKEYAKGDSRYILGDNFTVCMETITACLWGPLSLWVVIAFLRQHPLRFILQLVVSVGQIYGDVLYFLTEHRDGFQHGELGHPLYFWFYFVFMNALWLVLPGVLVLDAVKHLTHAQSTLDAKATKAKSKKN

Each structure is given as a SMILES string. pKi: −log10 of the molar value.

For orientation: pKi means −log10 of the Ki, conventionally taken in molar units.

`Cc1cc(C(F)(F)F)cnc1[C@H]1CC[C@H](N2CCC3(C2)CS(=O)(=O)C3)CC1` [Compound 47B, 6-((1r,4r)-4-(3-methyl-5-(trifluoromethyl)pyridin-2-yl)cyclohexyl)-2-thia-6-azaspiro[3.4]octane 2,2-dioxide] showed a negative-log Ki (pKi) of 7.64.
